Reference: patent US7128910B2, “Moraxella catarrahalis outer membrane protein-106 polypeptide, gene sequences and uses thereof” (priority 1996, dated 2006)

Tested on: M. catarrhalis ATCC 49143
Test: Proteolytic digestion of intact cells followed by hemagglutination test
Assay type: cell-based, Moraxella catarrhalis
Conditions: intact cells digested 1 hour at room temperature
Procedure: All proteases were obtained from Sigma Chemicals (St. Louis, Mo.). Immediately following the protease treatment, cells were washed once in PBS and resuspended in 1 ml of PBS and the hemagglutinating activity was tested. Additionally, protease-treated bacterial cells were extracted with octyl glucoside so the outer membrane proteins could be resolved to identify specific proteins that may have been digested by the proteases.

Substance	Effect of protease treatment on hemagglutination activity
chymotrypsin	destroyed the hemagglutination activity
proteinase V8: Protease from Sigma Chemicals	did not affect hemagglutination activity
trypsin	partially destroyed hemagglutination activity
